According to patent US20130172360A1, “DERIVATIVES OF AZAINDAZOLE OR DIAZAINDAZOLE TYPE AS MEDICAMENT” (PIERRE FABRE MEDICAMENT, priority 2011, published 2013):

Tests used:
[1] = biological target: T1, ALK (Homo sapiens, UniProt Q9UM73); experiment: Test for measuring inhibition of ALK kinase (GST-PLCγ1 substrate, anti-phosphotyrosine ELISA, luminescence); format: biochemical; conditions: 250 μM ATP, 30 minutes at 30° C.; read-out: Enzymatic inhibition of ALK (IC50)
Description: Test for Measuring Inhibition of ALK Kinase:
A ViewPlate microplate (Packard) is incubated with 0.1 mg/ml GST-PLCγ1 substrate (purified recombinant form) in phosphate buffer (PBS, pH 7.4) (100 μl/well) for one hour under stirring. The plate is then saturated with blocking solution comprising 5% bovine serum albumin (BSA) (Sigma) in PBS buffer, pH 7.4.
After having added a compound according to the invention to the desired final concentration (typical range between 30 μM and 10 nM), the reaction is carried out by adding 180 ng/ml ALK to a reaction buffer comprised of 13 mM Tris, pH 7.5 (Sigma); 6.5 mM MgCl2 (Merck); 0.65 mM dithiothreitol (DTT) (Acros); 39 mM sodium ([…] (TCI); 0.65 mM sodium orthovanadate (Sigma); and 250 μM ATP (Sigma). Incubation is carried out for 30 minutes at 30° C. under stirring.
After three washings under stirring in 0.1% PBS/Tween-20 buffer (Sigma), an anti-phosphotyrosine antibody, coupled with HRP (UBI) diluted to 1/1000 in 5 mg/ml PBS/BSA buffer, is incubated for one hour with stirring. After three new washings in 0.1% PBS/Tween-20, the wells are incubated for two minutes with […] of SuperSignal ELISA mixture (Pierce).
The signal is read in luminescence mode using a luminometer (SpectraMax M5e, Molecular Devices).
IC50s are determined by nonlinear regression on the basis of a sigmoidal dose/response relationship model, wherein the Hill coefficient is left variable, carried out on the GraphPad software package according to the algorithm provided.

[2] = system: Karpas 299 cells (human anaplastic large-cell lymphoma); experiment: Test for measuring inhibition of cell (Karpas 299) proliferation (ATPlite); format: cell-based; conditions: 72 hours
Description: Test for Measuring Inhibition of Cell (Karpas 299) Proliferation:
The antiproliferative activities of the compounds according to the invention were measured by the ATPlite technique (Perkin Elmer).
Nonadherent human anaplastic large-cell lymphoma cells (Karpas 299) are inoculated in 96-well plates (300,000 cells/ml) at day 1, at a concentration compatible with logarithmic growth for the 72 hours required for the evaluation of the compounds. All of the cells are treated at day 1 and then placed in an incubator at 37° C. under an atmosphere of 5% CO2. Cell viability is evaluated at day 4 by assaying released ATP, which is characteristic of viable cells. IC50s are determined by nonlinear regression on the basis of a sigmoidal dose/response relationship model, wherein the Hill coefficient is left variable, carried out on the GraphPad software package according to the algorithm provided.

[3] = system: human anaplastic large-cell lymphoma (ALCL) tumor model; experiment: In vivo antitumor activity, ALCL tumors grafted subcutaneously in mice, oral daily dosing; conditions: mice with subcutaneous ALCL tumors, daily schedule; for adverse effects: animals weighed several times per week; for inhibition of ALCL tumor growth: corresponds to complete regression of the tumors
Description: Pharmacological Activity In Vivo
The compounds were administered orally at various doses on a daily schedule to mice with ALCL tumors grafted subcutaneously. Tumor size was measured regularly during the study and the animals were weighed several times per week in order to identify any adverse effects. A compound is declared active if it induces inhibition of ALCL tumor growth by at least 58%.

[4] = biological target: T1, ALK; experiment: Inhibition of a panel of kinases (Millipore): ALK; format: biochemical; conditions: Millipore kinase panel; read-out: Enzyme inhibition (IC50, nM) ALK
Text: (§1) Test for Measuring Inhibition of a Panel of Kinases:
(§2) These kinases are produced by Millipore and are screened according to the manufacturer's protocols.

[5] = biological target: T2, Abl (Homo sapiens, UniProt P00519); experiment: Inhibition of a panel of kinases (Millipore): Abl; format: biochemical; conditions: Millipore kinase panel; read-out: Enzyme inhibition (IC50, nM) Abl
T2 construct: purchased Millipore
T2 sequence (P00519 whole entry, species assumed): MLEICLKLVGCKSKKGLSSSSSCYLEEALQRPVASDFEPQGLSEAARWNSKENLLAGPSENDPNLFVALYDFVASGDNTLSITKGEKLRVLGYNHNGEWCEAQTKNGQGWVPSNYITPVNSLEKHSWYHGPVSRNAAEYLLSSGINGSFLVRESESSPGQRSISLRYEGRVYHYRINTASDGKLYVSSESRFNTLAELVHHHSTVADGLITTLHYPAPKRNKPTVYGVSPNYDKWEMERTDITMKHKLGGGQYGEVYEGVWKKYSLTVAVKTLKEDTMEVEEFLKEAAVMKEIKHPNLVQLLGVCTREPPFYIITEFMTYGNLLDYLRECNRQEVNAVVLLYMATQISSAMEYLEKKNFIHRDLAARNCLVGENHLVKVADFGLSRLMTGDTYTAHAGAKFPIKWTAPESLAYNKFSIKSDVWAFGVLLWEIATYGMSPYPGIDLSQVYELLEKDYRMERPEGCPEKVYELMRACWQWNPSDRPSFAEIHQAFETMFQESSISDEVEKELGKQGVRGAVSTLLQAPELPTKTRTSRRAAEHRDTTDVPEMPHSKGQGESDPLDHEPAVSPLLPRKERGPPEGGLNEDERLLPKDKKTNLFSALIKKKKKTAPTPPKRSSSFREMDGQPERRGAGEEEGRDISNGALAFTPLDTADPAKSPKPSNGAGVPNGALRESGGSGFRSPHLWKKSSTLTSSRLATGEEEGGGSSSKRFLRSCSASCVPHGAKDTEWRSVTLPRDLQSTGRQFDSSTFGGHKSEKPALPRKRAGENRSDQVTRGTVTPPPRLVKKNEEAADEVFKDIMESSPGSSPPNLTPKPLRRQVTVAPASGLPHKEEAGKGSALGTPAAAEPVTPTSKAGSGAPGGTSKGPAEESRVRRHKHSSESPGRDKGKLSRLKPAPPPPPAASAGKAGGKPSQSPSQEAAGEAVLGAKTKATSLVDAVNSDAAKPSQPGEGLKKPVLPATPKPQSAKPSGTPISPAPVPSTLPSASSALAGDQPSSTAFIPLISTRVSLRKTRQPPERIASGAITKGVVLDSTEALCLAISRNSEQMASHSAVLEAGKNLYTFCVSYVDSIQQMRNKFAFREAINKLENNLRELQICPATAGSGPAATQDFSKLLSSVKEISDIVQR
Text: as §1, §2

[6] = biological target: T3, c-Src (Homo sapiens, UniProt P12931); experiment: Inhibition of a panel of kinases (Millipore): c-Src; format: biochemical; conditions: Millipore kinase panel; read-out: Enzyme inhibition (IC50, nM) c-Src
T3 construct: purchased Millipore
T3 sequence (P12931 whole entry): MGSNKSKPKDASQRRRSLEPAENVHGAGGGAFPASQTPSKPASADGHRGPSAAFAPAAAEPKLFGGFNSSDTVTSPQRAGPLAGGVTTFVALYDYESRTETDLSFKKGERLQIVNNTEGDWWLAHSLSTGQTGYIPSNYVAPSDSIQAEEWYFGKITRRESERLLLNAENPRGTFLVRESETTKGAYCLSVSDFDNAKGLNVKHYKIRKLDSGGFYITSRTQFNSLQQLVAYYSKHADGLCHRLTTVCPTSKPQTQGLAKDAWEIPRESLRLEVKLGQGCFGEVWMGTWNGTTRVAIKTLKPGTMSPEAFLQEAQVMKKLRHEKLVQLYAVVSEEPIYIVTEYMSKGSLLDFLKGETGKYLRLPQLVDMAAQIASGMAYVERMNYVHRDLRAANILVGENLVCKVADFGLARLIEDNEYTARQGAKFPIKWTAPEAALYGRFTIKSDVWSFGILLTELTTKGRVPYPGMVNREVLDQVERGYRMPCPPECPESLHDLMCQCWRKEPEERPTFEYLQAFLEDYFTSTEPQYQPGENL
Text: as §1, §2

T1 sequence (Q9UM73 19-1620): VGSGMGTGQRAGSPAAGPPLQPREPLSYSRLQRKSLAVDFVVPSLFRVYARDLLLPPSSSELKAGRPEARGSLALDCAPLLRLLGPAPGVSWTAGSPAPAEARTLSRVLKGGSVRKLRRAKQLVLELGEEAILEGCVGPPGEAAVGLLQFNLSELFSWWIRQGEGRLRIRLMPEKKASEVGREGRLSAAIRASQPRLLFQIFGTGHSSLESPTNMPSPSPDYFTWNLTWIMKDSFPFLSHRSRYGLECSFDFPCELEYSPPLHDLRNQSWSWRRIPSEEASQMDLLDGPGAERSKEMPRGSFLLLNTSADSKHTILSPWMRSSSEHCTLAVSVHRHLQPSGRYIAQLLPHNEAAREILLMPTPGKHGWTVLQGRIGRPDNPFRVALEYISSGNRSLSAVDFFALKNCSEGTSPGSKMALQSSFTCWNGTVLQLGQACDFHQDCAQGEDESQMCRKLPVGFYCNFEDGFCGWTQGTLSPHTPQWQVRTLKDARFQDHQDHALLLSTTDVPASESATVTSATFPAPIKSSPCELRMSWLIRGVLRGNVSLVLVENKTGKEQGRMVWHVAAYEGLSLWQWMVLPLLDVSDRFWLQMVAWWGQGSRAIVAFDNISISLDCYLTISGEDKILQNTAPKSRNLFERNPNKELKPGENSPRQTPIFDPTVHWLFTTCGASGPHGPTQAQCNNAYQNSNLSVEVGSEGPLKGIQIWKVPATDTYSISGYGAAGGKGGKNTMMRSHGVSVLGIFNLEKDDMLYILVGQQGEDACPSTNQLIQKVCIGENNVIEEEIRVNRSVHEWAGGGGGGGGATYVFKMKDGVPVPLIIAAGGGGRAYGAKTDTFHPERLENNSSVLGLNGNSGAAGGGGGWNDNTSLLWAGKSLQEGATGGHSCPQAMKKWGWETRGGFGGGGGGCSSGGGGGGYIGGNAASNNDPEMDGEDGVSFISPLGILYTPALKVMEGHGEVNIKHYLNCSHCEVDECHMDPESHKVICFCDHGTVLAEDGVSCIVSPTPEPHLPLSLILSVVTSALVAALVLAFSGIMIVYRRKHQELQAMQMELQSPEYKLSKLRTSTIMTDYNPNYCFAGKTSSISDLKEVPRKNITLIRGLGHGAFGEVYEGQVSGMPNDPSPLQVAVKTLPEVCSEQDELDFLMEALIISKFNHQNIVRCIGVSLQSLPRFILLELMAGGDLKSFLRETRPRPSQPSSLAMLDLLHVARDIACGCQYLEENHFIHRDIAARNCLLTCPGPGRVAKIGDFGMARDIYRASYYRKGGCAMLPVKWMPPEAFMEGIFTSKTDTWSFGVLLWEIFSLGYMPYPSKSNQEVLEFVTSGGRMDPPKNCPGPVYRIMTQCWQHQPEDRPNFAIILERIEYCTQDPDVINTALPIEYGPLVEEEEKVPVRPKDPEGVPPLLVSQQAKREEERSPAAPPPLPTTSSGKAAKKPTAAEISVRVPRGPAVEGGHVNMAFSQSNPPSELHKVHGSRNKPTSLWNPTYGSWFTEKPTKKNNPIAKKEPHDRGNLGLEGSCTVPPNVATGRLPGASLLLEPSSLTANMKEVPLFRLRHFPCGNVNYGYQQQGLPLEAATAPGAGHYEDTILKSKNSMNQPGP

SMILES	IC50 [1] [nM]	IC50 [2] [nM]	IC50 [4] [nM]	IC50 [5] [nM]	IC50 [6] [nM]	adverse effects [3]	inhibition of ALCL tumor growth [3] [%]
CN1CCN(c2ccc(C(=O)Nc3n[nH]c4ncc(CCc5cc(F)cc(F)c5)cc34)c(NC3CCOCC3)c2)CC1 [Example 31, N-(5-(3,5-difluorophenethyl)-1H-pyrazolo[3,4-b]pyridin-3-yl)-4-(4-methylpiperazin-1-yl)-2-(tetrahydro-2H-pyran-4-ylamino)benzamide]	17	830					
COc1nc2[nH]nc(NC(=O)c3ccc(N4CCN(C)CC4)cc3NC3CCOCC3)c2cc1Sc1cc(F)cc(F)c1 [Example 30-5, N-(5-(3,5-difluorophenylthio)-6-methoxy-1H-pyrazolo[3,4-b]pyridin-3-yl)-4-(4-methylpiperazin-1-yl)-2-(tetrahydro-2H-pyran-4-ylamino)benzamide]	66	2600					
CN1CCN(c2ccc(CNc3n[nH]c4ncc(Sc5cc(F)cc(F)c5)cc34)cc2)CC1 [Example 28, 5-(3,5-difluorophenylthio)-N-(4-(4-methylpiperazin-1-yl)benzyl)-1H-pyrazolo[3,4-b]pyridin-3-amine]	36						
CN1CCN(c2ccc(C(=O)Nc3n[nH]c4ncc(Sc5ccccc5C(N)=O)cc34)c(NC3CCOCC3)c2)CC1 [Example 30-1, N-(5-(2-carbamoylphenylthio)-1H-pyrazolo[3,4-b]pyridin-3-yl)-4-(4-methylpiperazin-1-yl)-2-(tetrahydro-2H-pyran-4-ylamino)benzamide]	20	2200					

Molecules with a lower IC50 [1], results first:

IC50 [1] [nM]	IC50 [2] [nM]	IC50 [4] [nM]	IC50 [5] [nM]	IC50 [6] [nM]	SMILES	adverse effects [3]	inhibition of ALCL tumor growth [3] [%]
1	160	7	18	4	CN1CCN(c2ccc(C(=O)Nc3n[nH]c4ncc(Sc5cc(F)cc(F)c5)cc34)c(NC3CCOCC3)c2)CC1 [Example 30, N-(5-(3,5-difluorophenylthio)-1-H-pyrazolo[3,4-b]pyridine-3-yl)-4-(4-methylpiperazine-1-yl)-2-(tetrahydro-2H-pyran-4-ylamino)benzamide]	no adverse effects	100
1		15	38	9	CN1CCN(c2ccc(C(=O)Nc3n[nH]c4ncc(Cc5cc(F)cc(F)c5)cc34)c(NC3CCOCC3)c2)CC1 [Example 30-9, N-(5-(3,5-difluorobenzyl)-1H-pyrazolo[3,4-b]pyridin-3-yl)-4-(4-methylpiperazin-1-yl)-2-(tetrahydro-2H-pyran-4-ylamino)benzamide]	no adverse effects	100
